Experimental data reported in the NIST ThermoML archive (doi:10.1021/acs.jced.6b00542).

Assay: xn = mol fraction of the nth substance listed
Conditions: for surface tension liquid-gas: 294.5 K, Pendant drop shape; for speed of sound: 100 kPa, Frequency=3 MHz, Sing-around technique in a fixed-path interferometer; for speed of sound / viscosity / mass density: Liquid; for viscosity / mass density: 102 kPa; for viscosity: Concentric cylinders viscometry; for mass density: Vibrating tube method

CCCCCCCCCCCCCCCCC [heptadecane] + CCCCc1ccccc1
Conditions	surface tension liquid-gas [mN/m]
x2 = 0.1662	27.6
x2 = 0.3047	27.7
x2 = 0.4587	28
x2 = 0.6419	28.2
x2 = 0.7515	28.3
x2 = 0.8742	29.2

Conditions	mass density [kg/m3]	speed of sound [m/s]	viscosity [mPa·s]
303.15 K, x2 = 0	771.02	1330.9	3.25
303.15 K, x2 = 0.1662	777.94	1325.3	2.73
303.15 K, x2 = 0.3047	784.91	1321.4	2.35
303.15 K, x2 = 0.4587	794.08	1316.9	1.96
303.15 K, x2 = 0.6419	808.08	1312.4	1.56
303.15 K, x2 = 0.7515	818.66	1311.3	1.35
303.15 K, x2 = 0.8742	833.23	1311	1.13
313.15 K, x2 = 0	764.16	1294.5	2.61
313.15 K, x2 = 0.1662	771	1289	2.23
313.15 K, x2 = 0.3047	777.87	1285	1.94
313.15 K, x2 = 0.4587	786.92	1280.3	1.64
313.15 K, x2 = 0.6419	800.73	1275.9	1.32
313.15 K, x2 = 0.7515	811.14	1274.1	1.15
313.15 K, x2 = 0.8742	825.49	1273.6	0.967
323.15 K, x2 = 0	757.3	1258.8	2.14
323.15 K, x2 = 0.1662	764.03	1253.3	1.85
323.15 K, x2 = 0.3047	770.84	1249.2	1.62
323.15 K, x2 = 0.4587	779.75	1244.5	1.39
323.15 K, x2 = 0.6419	793.34	1239.7	1.14
323.15 K, x2 = 0.7515	803.6	1237.6	1
323.15 K, x2 = 0.8742	817.71	1236.6	0.844
333.15 K, x2 = 0	750.45	1223.8	1.79
333.15 K, x2 = 0.1662	757.11	1218.1	1.56
333.15 K, x2 = 0.3047	763.79	1214	1.38
333.15 K, x2 = 0.4587	772.56	1209.1	1.2
333.15 K, x2 = 0.6419	785.94	1204	0.981
333.15 K, x2 = 0.7515	796.02	1201.6	0.865
333.15 K, x2 = 0.8742	809.9	1200.1	0.747
343.15 K, x2 = 0	743.7	–	1.52
343.15 K, x2 = 0.1662	750.12	–	1.33
343.15 K, x2 = 0.3047	756.65	–	1.19
343.15 K, x2 = 0.4587	765.4	–	1.04
343.15 K, x2 = 0.6419	778.47	–	0.861
343.15 K, x2 = 0.7515	788.4	–	0.768
343.15 K, x2 = 0.8742	802	–	0.671
353.15 K, x2 = 0	736.8	–	1.3
353.15 K, x2 = 0.1662	743.1	–	1.16
353.15 K, x2 = 0.3047	749.6	–	1.04
353.15 K, x2 = 0.4587	758.1	–	0.906
353.15 K, x2 = 0.6419	771	–	0.763
353.15 K, x2 = 0.7515	780.7	–	0.684
353.15 K, x2 = 0.8742	794.1	–	0.602
363.15 K, x2 = 0	729.8	–	1.14
363.15 K, x2 = 0.1662	736.1	–	1.01
363.15 K, x2 = 0.3047	742.4	–	0.909
363.15 K, x2 = 0.4587	750.8	–	0.805
363.15 K, x2 = 0.6419	763.4	–	0.687
363.15 K, x2 = 0.7515	773	–	0.623
363.15 K, x2 = 0.8742	786.1	–	0.546
373.15 K, x2 = 0	723	–	1
373.15 K, x2 = 0.1662	729	–	0.891
373.15 K, x2 = 0.3047	735.2	–	0.811
373.15 K, x2 = 0.4587	743.5	–	0.725
373.15 K, x2 = 0.6419	755.8	–	0.628
373.15 K, x2 = 0.7515	765.2	–	0.567
373.15 K, x2 = 0.8742	778.1	–	0.499
